Consider seven molecules from US6376753B1, “PURIFIED CYTOCHROME P450 POLYPEPTIDE CYP76B1 FROM HELIANTHUS TUBEROSUS AND ITS APPLICATIONS AS BIOCATALYST IN PARTICULAR FOR THE DEGRADATION OF ENVIRONMENTAL POLLUTANTS AND FOR ALTERING THE RESISTANCE OF PLANTS SENSITIVE TO PHENYLUREA FAMILY OF HERBICIDES” (priority 1997, dated 2002).

For data set [1], the system named is cotton seedling hypocotyl microsomes. The conditions noted are these: read-out: Km for demethylation; cited from earlier work.
The target in data set [2] is T1, CYP76B1 (Helianthus tuberosus, UniProt O23976).
T1 sequence (O23976 1-490): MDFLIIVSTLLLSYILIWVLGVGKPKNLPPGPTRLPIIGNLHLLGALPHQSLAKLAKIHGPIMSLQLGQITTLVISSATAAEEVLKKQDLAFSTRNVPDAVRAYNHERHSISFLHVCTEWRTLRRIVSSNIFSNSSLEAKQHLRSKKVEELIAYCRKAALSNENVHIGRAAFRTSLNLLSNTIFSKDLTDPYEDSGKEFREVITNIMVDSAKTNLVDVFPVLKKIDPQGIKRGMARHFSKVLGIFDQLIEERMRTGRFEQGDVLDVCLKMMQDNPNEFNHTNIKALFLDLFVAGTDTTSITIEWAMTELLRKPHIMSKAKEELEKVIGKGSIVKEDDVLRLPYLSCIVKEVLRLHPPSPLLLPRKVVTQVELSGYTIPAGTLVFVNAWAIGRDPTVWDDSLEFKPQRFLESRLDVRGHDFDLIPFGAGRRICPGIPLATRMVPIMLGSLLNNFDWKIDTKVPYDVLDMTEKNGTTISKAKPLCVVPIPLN
Briefly: biochemical. As for the experimental part:
(§1) Spectrophotometric measurements of P450 content and substrate binding were performed as in (Gabriac et al., 1991) and SDS-PAGE was performed as in Gabriac et al. (34). Gels were stained with Coomassie Blue R-250. Alkoxycoumarins and alkoxyresorufins O-dealkylation was measured by fluorometry (Werck-Reichhart et al., 1990). The data are means ± S.D. of triplicates.
The binding of substrates into the catalytic site of a P450 usually induces a shift of its maximum of absorbance, redox potential and iron spin state (Raag and Poulos, 1989) resulting from the displacement of the water sixth ligand of the heme iron. It is easily detected by differential spectrophotometry as a so-called type I spectrum with a peak at 390 nm and a trough at 420 nm (Jefcoate, 1978). The variation of the differential absorbance ΔA390-420 versus substrate concentration allows the calculation of an apparent dissociation constant (Ks). A high ΔAmax induced by the ligand is usually an indication of correct positioning for catalysis.
CYP76B1 was 60 nM in the assays. Difference spectra were recorded after the addition of increasing concentrations of ligands to the sample cuvette. An equal volume of the herbicide solvent (DMSO) was added to the reference. Ks and ΔAmax at saturating ligand concentration were calculated from the double-reciprocal plots of ΔA(390-420 nm) versus substrate concentrations.

For data set [3], the target named is T1, CYP76B1. Briefly: CYP76B1-dependent metabolism (O-/N-dealkylation) in microsomes of transformed yeast. The conditions noted are these: for ECOD activity: Transformed yeast W(R); for Activity: + NADPH; for turnover of the dealkylation: for phenylureas first dealkylation. As for the experimental part: BamHI and EcoRI sites were introduced by PCR just upstream of the ATG and downstream of the stop codon of the CYP76B1 coding sequence, using the primers 5′-[…] (sense) 5′-[…] (reverse) (SEQ ID NO 3 and SEQ ID NO 4 respectively). The PCR mixture was preheated for 2 min at 92° C. before addition of 1 unit of Pfu DNA polymerase (Stratagene). After 3 min additional heating at 92° C., 30 cycles of amplification were carried out as follows 1 min denaturation at 92° C., 1 min annealing at 52° C., 2 min extension at 72° C. The reaction was completed by 10 min extension at 72° C. After BamHI/EcoRI digestion, the 1470 bp coding sequence was inserted into the vector pYeDP60 (32). Transformation of Saccharomyces cerevisiae W(R), WAT11 and WAT21, and yeast growth were conducted according to Pompon et al. (32). Yeast microsomes were prepared as described in Pierrel et al. (33) with addition of 1% SAB, 2 mM β-mercaptoethanol, 10 mM sodium disulfite and 1 mM PMSF to the extraction buffer. When indicated, 0.5 mM δ-aminolevulinic acid methyl ester (Sigma) was added to the induction medium, or cells were stored at 4° C. for 24 h before preparation of the microsomes.
as §1
The conversion of other molecules was assayed by TLC or HPLC analysis of polar metabolites formed from radiolabeled compounds (Cabello-Hurtado et al., 1998a, b). NADPH-cytochrome c reductase was assayed according to (Benveniste et al., 1986). Kinetic data were fitted using the nonlinear regression program […] (Duggleby, 1984).
10 μL of non-immune serum or of serum raised against purified ECOD fraction were preincubated 2 min at room temperature with 10 μL of microsomes before addition of the reaction mix. n.d.: not detectable.
Conversion was estimated from the sum of the two polar metabolites detected after TLC analysis. Data are means + S.D. of two to four determinations. n.d.: not detected.
CYP76B1 concentrations in the MCOD, ECOD, MROD and EROD fluorometric assays were 1.5 nM or 2.1 nM, depending on the coexpressed ATR1 or yeast reductases. In the CTUDM assays, CYP76B1 concentrations were 1.7 nM (ATR1) and 8 nM (yeast), respectively. It was 12 nM for the determination of the catalytic parameters of monodemethyl-CTUDM, and 1.7 nM (ATR1) or 20 nM (yeast) in the IPUDM assays. Products were quantified by direct TLC analysis of 100 μL of the acidified incubation medium after 6 min incubation at 30° C. for the CTUDM and IPUDM assays, and after 9 min incubation for the monodemethyl-CTUDM.

In data set [4] the test system is microsomes from aminopyrine-induced H. tuberosus tuber tissues. Briefly: ECOD activity in microsomes from aminopyrine-induced tuber tissues. Type of data set: biochemical, Helianthus tuberosus. An excerpt: Gels were stained with Coomassie Blue R-250. […] The data are means ± S.D. of triplicates.
Table 1: NADPH- and cumene hydroperoxide-dependent ECOD activity in microsomes from aminopyrine-induced H. tuberosus tuber tissues and in microsomes from control and CYP76B1-transformed yeast. Immunoinhibition by anti-ECOD antibodies.

For another data set, the system named is control yeast microsomes. Briefly: Metabolism in control yeast microsomes (void plasmid pYeDP60). Type of data set: biochemical, Saccharomyces cerevisiae. The note with it: NADPH.
Data set [5] has as its system CYP76B1 transcripts.
For data set [6], the system named is 7-methoxyresorufin O-dealkylase activity. The data set is described as follows: Induction of 7-methoxyresorufin O-demethylase activity in tuber slices. The class given is cell-based, Helianthus tuberosus. The note with it: 48 hours of treatment. As to the method:
Slices of dormant tuber of Helianthus tuberosus were placed under survival conditions in oxygenated distilled water and stirred with a current of compressed air in the presence of various metals or organic compounds (effectors).
A control was performed with DMSO alone.

A further data set addresses T2, CYP73A1 (Helianthus tuberosus, UniProt Q04468).
T2 construct: host or cells: yeast-expressed, according to b197
T2 sequence (Q04468 1-505): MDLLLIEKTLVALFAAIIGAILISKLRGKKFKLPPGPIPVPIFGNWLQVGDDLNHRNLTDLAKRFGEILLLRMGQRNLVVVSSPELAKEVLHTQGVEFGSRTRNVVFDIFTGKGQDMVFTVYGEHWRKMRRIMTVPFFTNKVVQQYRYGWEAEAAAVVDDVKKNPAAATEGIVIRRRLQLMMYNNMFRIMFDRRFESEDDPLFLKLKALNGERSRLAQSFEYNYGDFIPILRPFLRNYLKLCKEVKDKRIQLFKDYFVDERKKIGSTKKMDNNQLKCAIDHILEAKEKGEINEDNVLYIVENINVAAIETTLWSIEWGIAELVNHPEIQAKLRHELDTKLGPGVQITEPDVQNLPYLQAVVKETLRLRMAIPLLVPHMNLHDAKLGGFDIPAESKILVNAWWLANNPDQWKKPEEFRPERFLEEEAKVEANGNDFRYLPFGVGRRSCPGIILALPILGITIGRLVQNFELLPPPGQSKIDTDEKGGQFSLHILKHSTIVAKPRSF
The note with it: chlortoluron hydroxylation; cited from earlier work.

Data set [7] deals with CYP76B1 transcripts. The note with it: tuber tissues aged 48 h with the chemical.
Substrate in data set [8]: CC(C)c1ccc(NC(=O)N(C)C)cc1
Briefly: purified protein, by the assay type.

Substrate in data set [9]: CCOc1ccc2nc3ccc(=O)cc-3oc2c1
Briefly: purified protein, by the assay type. The conditions noted are these: other: coexpressed yeast reductase (W(R)).

Substrate in data set [10]: COc1ccc2ccc(=O)oc2c1
The data set is described as follows: purified protein, by the assay type.

Substrate in data set [11]: Cc1ccc(NC(=O)N(C)C)cc1Cl
Briefly: purified protein, by the assay type.

Substrate in data set [12]: CCOc1ccc2ccc(=O)oc2c1
The data set is described as follows: purified protein, by the assay type.

Setting [13] is: 50 μM NADPH, 400 μM 7-ethoxycoumarin.
Where [14] appears, read: other: coexpressed reductase ATR1 (WAT11).
[15] abbreviates: other: coexpressed yeast reductase (W(R)).

A word on the Km: it is the concentration of substrate that gives half-maximal velocity. The Kd is the equilibrium constant for the complex coming apart. Take `CN(C)C(=O)Nc1ccc(Cl)c(Cl)c1` [Diuron]: the Km in [1] is 15 µM. The same molecule gave a Kd at CYP76B1 [2] of 20 µM.

As for `CCOc1ccc2ccc(=O)oc2c1` [7-ethoxycoumarin], the Vmax at CYP76B1 [3] (ECOD, W(R) yeast microsomes, NADPH) is on record as 600 pkat.pmole^−1 P450. For the same molecule, the ECOD activity on CYP76B1 [3] (setting [13]) was 8.4 ± 0.05 pkat · mg^−1 protein; at CYP76B1 [3] (125 μM cumene hydroperoxide), “no activity”; at CYP76B1 [3] (NADPH + anti-ECOD antibodies), 7.5 ± 0.2 pkat · mg^−1 protein; in data set [4] (setting [13]), 5.2 ± 0.1 pkat · mg^−1 protein; in data set [4] (125 μM cumene hydroperoxide), 2.5 ± 0.09 pkat · mg^−1 protein; in [4] (NADPH + anti-ECOD antibodies), 2.6 ± 0.1 pkat · mg^−1 protein. Also, the ECOD activity entry in the data set with control yeast microsomes is recorded as “No activity”. The Activity on CYP76B1 [3] (W(R) strain) amounted to 8.4 pkat mg-1 protein; on CYP76B1 [3] (WAT11 strain), 15.9 pkat mg-1 protein. Further, the “turnover of the dealkylation” value on CYP76B1 [3] (W(R) strain) was 10 min⁻¹; on CYP76B1 [3] (WAT11 strain), 30 min⁻¹.

For `[Cl][Mn][Cl]` [manganese, MnCl2], the “fold more transcripts coding for CYP76B1 than for CYP73A1 or CYP81B1” value in the data set with CYP76B1 transcripts [5] lay in the range of 2 to 6 fold. The “induction of 7-methoxyresorufin O-dealkylase activity” value (shortened to “induction”) in data set [6] was “very strongly induced”.

In the case of `Cc1ccc(NC(=O)N(C)C)cc1Cl` [Chlortoluron, N-(3-chloro-p-tolyl)-N′,N′-dimethylurea], the results for the Activity at CYP76B1 [3] (W(R) strain) and on CYP76B1 [3] (WAT11 strain) were 1223 pkat mg-1 protein and 4258 pkat mg-1 protein, respectively. The “turnover of the dealkylation” value on CYP76B1 [3] (W(R) strain) was “about 376 min^−1”; on CYP76B1 [3] (WAT11 strain) it was 803 min⁻¹. For the same molecule, the Kcat on CYP76B1 [3] (coexpressed reductase ATR1 (WAT11)) is 13.4 s⁻¹; on CYP76B1 [3] (coexpressed yeast reductase (W(R))), 6.27 s⁻¹. In addition, the “kCat of the second demethylation” value at CYP76B1 [3] (second demethylation, slow step for complete detoxification) came out at 0.767 s⁻¹. Moreover, on CYP73A1, the “reaction turnover (hydroxylation)” value is 0.014 min⁻¹. Besides, the Kd on CYP76B1 [2] was determined as 24 µM. The “ΔAmax × 10^−3” value on CYP76B1 [2] (CYP76B1 60 nM, at saturating ligand concentration) is given as 5.1 × 10^−3.

Turning to `Cc1c(N(C)C)c(=O)n(-c2ccccc2)n1C` [aminopyrine], the “fold more transcripts coding for CYP76B1 than for CYP73A1 or CYP81B1” value in the data set with CYP76B1 transcripts [5] lay in the range of 2 to 6 fold. In addition, the “induction” value in data set [6] is given as “very strongly induced”.

Regarding `CCC1(c2ccccc2)C(=O)NC(=O)NC1=O.[Na]` [phenobarbital, 5-ethyl-5-phenyl-barbituric acid, sodium salt], the “induction” value in [6] is given as “very strongly induced”. For the same molecule, in the data set on CYP76B1 transcripts [7], the “effect on CYP76B1 mRNA accumulation / expression” value is recorded as “strongly induced” and the “level of CYP76B1 transcripts relative to the control” value came out at 6 ×.

B1: CYP76B1 (Helianthus tuberosus) (protein)
chain: T1 sequence (O23976 1-490)
The term kcat denotes the number of substrate molecules converted per active site and unit of time at saturation. As usually defined, the kcat/Km is the turnover number divided by the Michaelis constant. For B1, the Km in data set [8] (setting [14]) was determined as 289 µM; in data set [8] (setting [15]) it was 361 µM; in data set [9] it was 0.49 µM; in data set [10] (setting [14]) it was 808 µM; in data set [10] (setting [15]), 899 µM; in data set [11] (setting [14]) it was 179 µM. Further, the Km in data set [11] (setting [15]) came out at 202 µM; in [12] (setting [14]), 60 µM; in data set [12] (setting [15]), 74 µM. The catalytic constant (kcat) in data set [9] came to 0.1 s⁻¹; in data set [10] (setting [14]) it was 0.517 s⁻¹; in [10] (setting [15]), 0.217 s⁻¹; in data set [12] (setting [14]), 0.5 s⁻¹; in data set [12] (setting [15]), 0.167 s⁻¹. The kcat/Km amounted to 200000 M⁻¹ s⁻¹ in data set [9]; 667 M⁻¹ s⁻¹ in data set [10] (setting [14]); 167 M⁻¹ s⁻¹ in data set [10] (setting [15]); 8330 M⁻¹ s⁻¹ in data set [12] (setting [14]); 2170 M⁻¹ s⁻¹ in [12] (setting [15]).
